Measurements taken from patent publication US5880258A (dated 1999).
*1 amine or outer side, *2 acyl side, *3 side chain or, on linkers, in order; H or OH if unused. Where a SMILES comes first, the peptide text is derived from it. [ ]: non-standard residue; d: D form. The star is where a group is joined. sY = N[C@@H](Cc1ccc(OS(=O)(=O)O)cc1)C(=O)O; Asu = N[C@@H](CCCCCC(=O)O)C(=O)O; dAsu = N[C@H](CCCCCC(=O)O)C(=O)O; Suc = O=C(CCC(=O)[*:2])[*:1]; X1 = NS(=O)(=O)CCN*; Ava = NCCCCC(=O)O; βAla = NCCC(=O)O

Biological target: thrombin (Homo sapiens, UniProt P00734)
Test: anti-thrombin activity; clotting assay (coagulation time with fibrinogen as substrate)
Assay type: biochemical
Set-up: 100 μl of human-thrombin prepared at 10 NIH units/ml in aforesaid buffer
Conditions: for IC50: concentration corresponding to 50 thrombin units, human-thrombin 10 NIH units/ml, human-fibrinogen 6 mg/ml, read-out: 50% Inhibition Concentration (converted); for Potency: calculated using the definition that HV-1 (54-65) potency is 1
Method: Measurement of anti-thrombin activity was done by looking at anti-coagulant activity as an index using fibrinogen as the substrate. That is, the compounds were dossolved in 200 μl of 0.1 mM Tris-HCl buffer (pH7.5) containing 0.1% polyethyleneglycol-6000, 100 μl of human-thrombin prepared at 10 NIH units/ml in aforesaid buffer, were added 200 μl of human-fibrinogen (Sigma) prepared at 6 mg/ml in aforesaid tris-hydrochloride buffer were added, and the coagulation time of the reaction mixtures were measured. For measuring of coagulation times, coagulation time analyzer (Amelung KC10A) was used. Obtained values were converted into units by using a previously prepared thrombin standard curve. Graphs were prepared by plotting the converted values on the vertical axis, and the concentrations of the compounds on the horizontal axis. In the graphs, the thrombin unit was defined as 100 at a compound concentration of 0. The concentration of compounds corresponding to 50 units were defined as 50% inhibitory concentrations of compounds.

CC[C@H](C)[C@H](NC(=O)[C@H](CCC(=O)O)NC(=O)[C@H](CCC(=O)O)NC(=O)[C@H](Cc1ccccc1)NC(=O)[C@H](CC(=O)O)NC(=O)CN)C(=O)N1CCC[C@H]1C(=O)N[C@@H](Cc1ccc(O)cc1)C(=O)N[C@@H](Cc1ccc(O)cc1)C(=O)N[C@@H](Cc1ccc(OS(=O)(=O)O)cc1)C(=O)N[C@@H](CC(C)C)C(=O)N[C@@H](CCC(N)=O)C(=O)O (single isomer, unassigned) [Sulfated form of (B) peak 3, Gly--Asp--Phe--Glu--Glu--Ile--Pro--Tyr--Tyr--Tyr(SO3 H)--Leu--Gln]
IC50: 2490 nM

CC[C@H](C)[C@H](NC(=O)[C@@H]1CCCN1C(=O)[C@H](CCC(=O)O)NC(=O)[C@H](Cc1ccccc1)NC(=O)CCC(=O)O)C(=O)N1CCC[C@H]1C(=O)N[C@@H](CCC(=O)O)C(=O)N[C@@H](Cc1ccc(O)cc1)C(=O)N[C@@H](Cc1ccc(O)cc1)C(=O)N[C@@H](CC(C)C)C(=O)NCCS(N)(=O)=O [(S)] (Suc-FEPIPEYYL-X1)
IC50: 72400 nM

CC[C@H](C)[C@H](NC(=O)[C@H](CCC(=O)O)NC(=O)[C@H](CCC(=O)O)NC(=O)[C@H](Cc1ccccc1)NC(=O)[C@H](CC(=O)O)NC(=O)CN)C(=O)N1CCC[C@H]1C(=O)N[C@@H](Cc1ccc(O)cc1)C(=O)N[C@@H](Cc1ccc(OS(=O)(=O)O)cc1)C(=O)N[C@@H](Cc1ccc(OS(=O)(=O)O)cc1)C(=O)N[C@@H](CC(C)C)C(=O)N[C@@H](CCC(N)=O)C(=O)O (single isomer, unassigned) [Sulfated form of (B) peak 1, Gly--Asp--Phe--Glu--Glu--Ile--Pro--Tyr--Tyr(SO3 H)--Tyr(SO3 H)--Leu--Gln]
IC50: 291 nM

CC[C@H](C)[C@H](NC(=O)[C@@H]1CCCN1C(=O)[C@H](CCC(=O)O)NC(=O)[C@H](Cc1ccccc1)NC(=O)[C@H](CC(=O)O)NC(=O)CNC(=O)CCC(=O)O)C(=O)N1CCC[C@H]1C(=O)N[C@@H](CCC(=O)O)C(=O)N[C@@H](Cc1ccc(O)cc1)C(=O)N[C@@H](Cc1ccc(O)cc1)C(=O)N[C@@H](CC(C)C)C(=O)N[C@@H](CCC(N)=O)C(=O)O [(C)] (Suc-GDFEPIPEYYLQ-OH)
Potency: 1.76
IC50: 2390 nM

CC[C@H](C)[C@H](NC(=O)[C@@H]1CCCN1C(=O)[C@H](CCC(=O)O)NC(=O)[C@H](Cc1ccccc1)NC(=O)CCC(=O)O)C(=O)N1CCC[C@H]1C(=O)N[C@@H](CCC(=O)O)C(=O)N[C@@H](Cc1ccc(OS(=O)(=O)O)cc1)C(=O)N[C@@H](Cc1ccc(OS(=O)(=O)O)cc1)C(=O)NCCC(=O)O [Sulfated form of (K), Suc--Phe--Glu--Pro--Ile--Pro--Glu--Tyr(SO3 H)--Tyr(SO3 H)--NH(CH2)2 COOH] (Suc-FEPIPE[sY][sY][βAla]-OH)
Potency: 1.02
IC50: 4650 nM

CC[C@H](C)[C@H](NC(=O)[C@@H]1CCCN1C(=O)[C@H](CCC(=O)O)NC(=O)[C@H](Cc1ccccc1)NC(=O)CCC(=O)O)C(=O)N1CCC[C@H]1C(=O)N[C@@H](CCC(=O)O)C(=O)N[C@@H](Cc1ccc(OS(=O)(=O)O)cc1)C(=O)N[C@@H](Cc1ccc(OS(=O)(=O)O)cc1)C(=O)N[C@@H](CC(C)C)C(=O)O [Sulfated form of (Q), Suc--Phe--Glu--Pro--Ile--Pro--Glu--Tyr (SO3 H)--Tyr(SO3 H)--Leu--OH] (Suc-FEPIPE[sY][sY]L-OH)
Potency: 1.85
IC50: 2490 nM

CC[C@H](C)[C@H](NC(=O)[C@@H]1CCCN1C(=O)[C@H](CCC(=O)O)NC(=O)[C@H](Cc1ccccc1)NC(=O)[C@H](CC(=O)O)NC(=O)CNC(=O)CCC(=O)O)C(=O)N1CCC[C@H]1C(=O)N[C@@H](Cc1ccc(OS(=O)(=O)O)cc1)C(=O)N[C@@H](Cc1ccc(OS(=O)(=O)O)cc1)C(=O)N[C@@H](Cc1ccc(OS(=O)(=O)O)cc1)C(=O)N[C@@H](CC(C)C)C(=O)N[C@@H](CCC(N)=O)C(=O)O [Sulfated form of (E), Suc--Gly--Asp--Phe--Glu--Pro--Ile--Pro--Tyr(SO3 H)--Tyr(SO3 H)--Tyr(SO3 H)--Leu--Gln--OH] (Suc-GDFEPIP[sY][sY][sY]LQ-OH)
Potency: 44.41
IC50: 80.7 nM

CC[C@H](C)[C@H](NC(=O)[C@H](CCC(=O)O)NC(=O)[C@H](CCC(=O)O)NC(=O)[C@H](Cc1ccccc1)NC(=O)[C@H](CC(=O)O)NC(=O)CN)C(=O)N1CCC[C@H]1C(=O)N[C@@H](CCC(=O)O)C(=O)N[C@@H](Cc1ccc(O)cc1)C(=O)N[C@@H](Cc1ccc(OS(=O)(=O)O)cc1)C(=O)N[C@@H](CC(C)C)C(=O)N[C@@H](CCC(N)=O)C(=O)O [Sulfated form of (A), Gly--Asp--Phe--Glu--Glu--Ile--Pro--Glu--Tyr--Tyr(SO3 H)--Leu--Gln] (H-GDFEEIPEY[sY]LQ-OH)
IC50: 2150 nM

CC[C@H](C)[C@H](NC(=O)[C@@H]1CCCN1C(=O)[C@H](CCC(=O)O)NC(=O)[C@H](Cc1ccccc1)NC(=O)CCC(=O)O)C(=O)N1CCC[C@H]1C(=O)N[C@@H](CCC(=O)O)C(=O)N[C@@H](Cc1ccc(OS(=O)(=O)O)cc1)C(=O)N[C@@H](Cc1ccc(OS(=O)(=O)O)cc1)C(=O)N[C@@H](CC(C)C)C(=O)N[C@H](CCC(=O)O)C(=O)O [Sulfated form of (T), Suc--Phe--Glu--Pro--Ile--Pro--Glu--Tyr(SO3 H)--Tyr(SO3 H)--Leu--(D)Glu--OH] (Suc-FEPIPE[sY][sY]L[dE]-OH)
Potency: 8.32
IC50: 509 nM

CC[C@H](C)[C@H](NC(=O)[C@@H]1CCCN1C(=O)[C@H](CCC(=O)O)NC(=O)[C@H](Cc1ccccc1)NC(=O)[C@H](CC(=O)O)NC(=O)CCC(=O)O)C(=O)N1CCC[C@H]1C(=O)N[C@@H](CCC(=O)O)C(=O)N[C@@H](Cc1ccc(OS(=O)(=O)O)cc1)C(=O)N[C@@H](Cc1ccc(OS(=O)(=O)O)cc1)C(=O)N[C@@H](CC(C)C)C(=O)N[C@@H](CCC(N)=O)C(=O)O [Sulfated form of (F), Suc--Asp--Phe--Glu--Pro--Ile--Pro--Glu--Tyr(SO3 H)--Tyr(SO3 H)--Leu--Gln--OH] (Suc-DFEPIPE[sY][sY]LQ-OH)
Potency: 1.32
IC50: 3000 nM

CC[C@H](C)[C@H](NC(=O)[C@@H]1CCCN1C(=O)[C@H](CCC(=O)O)NC(=O)[C@H](Cc1ccccc1)NC(=O)CCC(=O)O)C(=O)N1CCC[C@H]1C(=O)N[C@@H](CCC(=O)O)C(=O)N[C@@H](Cc1ccc(O)cc1)C(=O)N[C@@H](Cc1ccc(O)cc1)C(=O)N[C@@H](CC(C)C)C(=O)N[C@H](CCCCCC(=O)OC)C(=O)OC [(U)] (Suc-FEPIPEYYL[dAsu](OMe)-OMe)
IC50: 32300 nM

CC[C@H](C)[C@H](NC(=O)[C@@H]1CCCN1C(=O)[C@H](CCC(=O)O)NC(=O)[C@H](Cc1ccccc1)NC(=O)CCC(=O)O)C(=O)N1CCC[C@H]1C(=O)N[C@@H](CCC(=O)O)C(=O)N[C@@H](Cc1ccc(O)cc1)C(=O)N[C@@H](Cc1ccc(O)cc1)C(=O)N[C@@H](CCCCCC(=O)OC)C(=O)OC [(O)] (Suc-FEPIPEYY[Asu](OMe)-OMe)
IC50: 26000 nM

CC[C@H](C)[C@H](NC(=O)[C@@H]1CCCN1C(=O)[C@H](CCC(=O)O)NC(=O)[C@H](Cc1ccccc1)NC(=O)[C@H](CC(=O)O)NC(=O)CNC(=O)CCC(=O)O)C(=O)N1CCC[C@H]1C(=O)N[C@@H](CCC(=O)O)C(=O)N[C@@H](Cc1ccc(OS(=O)(=O)O)cc1)C(=O)N[C@@H](Cc1ccc(OS(=O)(=O)O)cc1)C(=O)N[C@@H](CC(C)C)C(=O)N[C@@H](CCC(N)=O)C(N)=O [Sulfated form of (D), Suc--Gly--Asp--Phe--Glu--Pro--Ile--Pro--Glu--Tyr(SO3 H)--Tyr(SO3 H)--Leu--Gln--NH2] (Suc-GDFEPIPE[sY][sY]LQ-NH2)
Potency: 57.07
IC50: 66.9 nM

CC[C@H](C)[C@H](NC(=O)[C@@H]1CCCN1C(=O)[C@H](CCC(=O)O)NC(=O)[C@H](Cc1ccccc1)NC(=O)CCC(=O)O)C(=O)N1CCC[C@H]1C(=O)N[C@@H](CCC(=O)O)C(=O)N[C@@H](Cc1ccc(OS(=O)(=O)O)cc1)C(=O)N[C@@H](Cc1ccc(OS(=O)(=O)O)cc1)C(=O)N[C@@H](CC(C)C)C(=O)N[C@@H](CCC(N)=O)C(=O)O [Sulfated form of (G), Suc--Phe--Glu--Pro--Ile--Pro--Glu--Tyr(SO3 H)--Tyr(SO3 H)--Leu--Gln--OH] (Suc-FEPIPE[sY][sY]LQ-OH)
Potency: 108.87
IC50: 38.9 nM

CC[C@H](C)[C@H](NC(=O)[C@@H]1CCCN1C(=O)[C@H](CCC(=O)O)NC(=O)[C@H](Cc1ccccc1)NC(=O)CCC(=O)O)C(=O)N1CCC[C@H]1C(=O)N[C@@H](CCC(=O)O)C(=O)N[C@@H](Cc1ccc(OS(=O)(=O)O)cc1)C(=O)N[C@@H](Cc1ccc(OS(=O)(=O)O)cc1)C(=O)N[C@@H](CC(C)C)C(=O)N[C@@H](CCCCCC(N)=O)C(N)=O [Sulfated form of (X), Suc--Phe--Glu--Pro--Ile--Pro--Glu--Tyr(SO2 H)--Tyr(SO3 H)--Leu--(L)Asu(NH2)NH2] (Suc-FEPIPE[sY][sY]L[Asu](NH2)-NH2)
IC50: 2000 nM

CC[C@H](C)[C@H](NC(=O)[C@@H]1CCCN1C(=O)[C@H](CCC(=O)O)NC(=O)[C@H](Cc1ccccc1)NC(=O)CCC(=O)O)C(=O)N1CCC[C@H]1C(=O)N[C@@H](CCC(=O)O)C(=O)N[C@@H](Cc1ccc(O)cc1)C(=O)N[C@@H](Cc1ccc(O)cc1)C(=O)NCCCCC(=O)O [(L)] (Suc-FEPIPEYY[Ava]-OH)
IC50: 12400 nM

CC[C@H](C)[C@H](NC(=O)[C@@H]1CCCN1C(=O)[C@H](CCC(=O)O)NC(=O)[C@H](Cc1ccccc1)NC(=O)CCC(=O)O)C(=O)N1CCC[C@H]1C(=O)N[C@@H](CCC(=O)O)C(=O)N[C@@H](Cc1ccc(O)cc1)C(=O)N[C@@H](Cc1ccc(O)cc1)C(N)=O [(J)] (Suc-FEPIPEYY-NH2)
Potency: 0.07
IC50: 85100 nM
